Assay results published in article PMC4619619, “Diversity of Active States in TMT Opsins” (PLoS ONE, 2015).

Columns and labels:
[1] = molecular target: T1, medaka TMT1A opsin (C-terminally truncated) (Oryzias latipes, UniProt R9R6D2); test: UV-visible spectroscopy; HPLC of chromophore; GTPγS exchange with Gi and Go; assay type: biochemical; conditions: covalent (protonated Schiff base); agonist; formed in situ by blue light (460 nm); 0 °C
T1 construct: gene tmtops1a; C-terminal 63 residues deleted; C-terminal rho1D4 tag (ETSQVAPA) kept; HEK293T, pMT4; purified in dodecyl maltoside, also membranes; cDNA cloned from medaka brain
T1 sequence (R9R6D2 1-342): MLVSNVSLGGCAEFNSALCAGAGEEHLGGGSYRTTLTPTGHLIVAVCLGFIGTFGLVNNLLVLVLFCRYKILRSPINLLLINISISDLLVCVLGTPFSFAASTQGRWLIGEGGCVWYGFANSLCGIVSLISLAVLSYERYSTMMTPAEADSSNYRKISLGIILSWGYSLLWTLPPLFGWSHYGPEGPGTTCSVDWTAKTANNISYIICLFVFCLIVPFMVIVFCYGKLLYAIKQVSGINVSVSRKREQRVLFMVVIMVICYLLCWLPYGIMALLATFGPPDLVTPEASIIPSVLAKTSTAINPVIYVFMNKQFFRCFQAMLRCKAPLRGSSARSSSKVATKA

medaka TMT2 opsin [2] = molecular target: T2, medaka TMT2 opsin (Oryzias latipes, UniProt R9R6C6); test: UV-visible spectroscopy; acid denaturation; HPLC; GTPγS exchange with Gi and Go; assay type: biochemical; conditions: covalent (unprotonated Schiff base); agonist; formed in situ by blue light (460 nm); 0 °C
T2 construct: gene tmtops2; full length; C-terminal rho1D4 tag (ETSQVAPA) kept; HEK293T, pMT4; partially purified in dodecyl maltoside, also membranes; cDNA cloned from medaka brain
T2 sequence (R9R6C6 1-355): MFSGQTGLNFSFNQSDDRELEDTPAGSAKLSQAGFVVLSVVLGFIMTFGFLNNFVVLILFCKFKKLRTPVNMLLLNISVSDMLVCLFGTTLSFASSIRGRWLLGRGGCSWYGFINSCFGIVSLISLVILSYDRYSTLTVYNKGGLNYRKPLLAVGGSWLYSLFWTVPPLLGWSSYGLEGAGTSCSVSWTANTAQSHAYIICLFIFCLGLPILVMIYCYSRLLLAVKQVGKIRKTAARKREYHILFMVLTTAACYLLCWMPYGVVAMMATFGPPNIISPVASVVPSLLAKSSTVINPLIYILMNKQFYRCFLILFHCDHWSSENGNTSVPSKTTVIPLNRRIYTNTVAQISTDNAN

[3] = molecular target: T1, medaka TMT1A opsin (C-terminally truncated); test: UV-visible spectroscopy; HPLC of chromophore; assay type: binding; conditions: covalent (Schiff base); formed in situ by orange light (>540 nm) from the all-trans state; 0 °C
[4] = molecular target: T3, medaka TMT1A opsin (C-terminally truncated) (Oryzias latipes, UniProt R9R6D2, T190S); test: UV-visible spectroscopy before and after irradiation; assay type: binding; conditions: covalent (Schiff base); 0 °C; bovine rhodopsin numbering; truncation of mutant not stated
T3 construct: gene tmtops1a; C-terminal 63 residues deleted; C-terminal rho1D4 tag (ETSQVAPA) kept; HEK293T, pMT4; purified in dodecyl maltoside, also membranes; cDNA cloned from medaka brain

medaka TMT2 opsin [5] = molecular target: T2, medaka TMT2 opsin; test: UV-visible spectroscopy; HPLC of chromophore; assay type: binding; conditions: covalent (Schiff base); reconstituted pigment in the dark; 0 °C, pH 6.5, 0.02% dodecyl maltoside
full-length TMT1A opsin = molecular target: T4, full-length TMT1A opsin (Oryzias latipes, UniProt R9R6D2); test: UV-visible spectroscopy; assay type: binding; conditions: covalent (Schiff base); reconstituted pigment
T4 construct: gene tmtops1a; full length; C-terminal rho1D4 tag (ETSQVAPA) kept; HEK293T, pMT4; purified
T4 sequence (R9R6D2 1-405): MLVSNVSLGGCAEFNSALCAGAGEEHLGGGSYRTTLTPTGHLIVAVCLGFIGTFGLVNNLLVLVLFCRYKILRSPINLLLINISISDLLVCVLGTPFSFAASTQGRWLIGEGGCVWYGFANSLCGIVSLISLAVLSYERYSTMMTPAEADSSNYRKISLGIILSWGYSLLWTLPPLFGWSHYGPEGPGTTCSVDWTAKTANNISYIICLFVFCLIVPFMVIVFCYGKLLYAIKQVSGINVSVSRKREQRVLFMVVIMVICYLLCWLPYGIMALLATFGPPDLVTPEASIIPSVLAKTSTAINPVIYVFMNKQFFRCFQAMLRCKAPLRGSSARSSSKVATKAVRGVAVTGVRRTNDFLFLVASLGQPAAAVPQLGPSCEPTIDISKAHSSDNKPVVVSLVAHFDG

T3 sequence (R9R6D2 entry or part of it T190S): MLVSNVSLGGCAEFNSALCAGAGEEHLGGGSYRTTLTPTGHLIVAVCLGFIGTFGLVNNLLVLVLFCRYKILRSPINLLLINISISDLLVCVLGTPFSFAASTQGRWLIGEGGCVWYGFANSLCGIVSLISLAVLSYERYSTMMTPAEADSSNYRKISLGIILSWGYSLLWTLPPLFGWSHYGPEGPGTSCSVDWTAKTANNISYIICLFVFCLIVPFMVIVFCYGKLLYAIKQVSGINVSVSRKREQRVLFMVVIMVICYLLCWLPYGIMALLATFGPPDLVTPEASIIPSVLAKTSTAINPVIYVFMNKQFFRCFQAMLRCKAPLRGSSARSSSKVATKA

SMILES: CC1=C(/C=C/C(C)=C/C=C/C(C)=C/C=O)C(C)(C)CCC1 [all-trans-retinal]
- UV-visible spectroscopy; HPLC of chromophore; GTPγS exchange with Gi and Go [1]: indicating that the all-trans product is a G protein-activating state
- UV-visible spectroscopy; acid denaturation; HPLC; GTPγS exchange with Gi and Go (medaka TMT2 opsin [2]): indicating that the all-trans product was the G protein-activating state of TMT2 opsin

SMILES: CC1=C(/C=C/C(C)=C\C=C\C(C)=C\C=O)C(C)(C)CCC1 [9-cis-retinal]
- UV-visible spectroscopy; HPLC of chromophore [3]: showed the formation of products having 9-cis and 7-cis forms (Fig 2E)

SMILES: CC1=C(\C=C/C(C)=C/C=C/C(C)=C/C=O)C(C)(C)CCC1 [7-cis-retinal]
- UV-visible spectroscopy; HPLC of chromophore [3]: showed the formation of products having 9-cis and 7-cis forms (Fig 2E)

SMILES: CC1=C(/C=C/C(C)=C/C=C\C(C)=C\C=O)C(C)(C)CCC1 [11-cis-retinal]
- UV-visible spectroscopy before and after irradiation [4]: We then constructed a single mutant (T186S) of TMT1A opsin
- UV-visible spectroscopy; HPLC of chromophore (medaka TMT2 opsin [5]): partially purified pigment of TMT2 opsin after reconstitution with 11-cis-retinal
- UV-visible spectroscopy (full-length TMT1A opsin): Full-length pigment was formed after reconstitution with 11-cis-retinal
